Assay results published in patent US20100234372A1, “SUBSTITUTED 2-MERCAPTOQUINOLINE-3-CARBOXAMIDES AS KCNQ2/3 MODULATORS” (GRUNENTHAL GMBH, priority 2009, published 2010).

Target: T1, KCNQ2/3 channels (Homo sapiens, UniProt O43525+O43526)
T1 construct: expressed in transfected cells; host or cells: CHO-K1 cells
Assay: Fluorescence assay using a voltage-sensitive dye (fluorimetry)
Assay type: cell-based
Conditions: for EC50: CHO-K1 cells expressing KCNQ2/3 channels; for Emax at 1 µM: 50 μM retigabine = 100%, CHO-K1 cells expressing KCNQ2/3, read-out: Fluorimetry % efficacy at 1 μM (50 μM retigabine = 100%)
Protocol: […] CHO-K1 cells expressing KCNQ2/3 channels are cultivated adherently at 37° C., 5% CO2 and 95% humidity in cell culture bottles (e.g. 80 cm^2 TC flasks, Nunc) with DMEM-high glucose (Sigma Aldrich, D7777) including 10% FCS (PAN Biotech, e.g. 3302-P270521) or alternatively MEM Alpha Medium (1×, liquid, Invitrogen, #22571), 10% foetal calf serum (FCS) (Invitrogen, #10270-106, heat-inactivated) and the necessary selection antibiotics.
Before being seeded out for the measurements, the cells are washed with a 1×DPBS buffer without Ca^2+/Mg^2+ (e.g. Invitrogen, #14190-094) and detached from the bottom of the culture vessel by means of Accutase (PAA Laboratories, #L11-007) (incubation with Accutase for 15 min at 37° C.). The cell count then present is determined using a CASY™ cell counter (TCC model, Scharfe System) in order subsequently to apply 20,000 to 30,000 cells/well/100 μl of the described nutrient medium, depending on density optimisation for the individual cell line, to 96-well measuring plates of the Corning™ CeIIBIND™ type (flat clear-bottom black polystyrene microplates, #3340). Incubation is then carried out for one hour at room temperature, without gassing or adjusting the humidity, followed by incubation for 24 hours at 37° C., 5% CO2 and 95% humidity.
The voltage-sensitive fluorescent dye from the Membrane Potential Assay Kit (Red™ bulk format part R8123 for FLIPR, MDS Analytical Technologies™) is prepared by dissolving the contents of a vessel of Membrane Potential Assay Kit Red Component A in 200 ml of extracellular buffer (ES buffer, 120 mM NaCl, 1 mM KCl, 10 mM HEPES, 2 mM CaCl2, 2 mM MgCl2, 10 mM glucose; pH 7.4). After removal of the nutrient medium, the cells are washed with 200 μl of ES buffer, then covered with a layer of 100 μl of the dye solution prepared above and incubated for 45 min at room temperature with exclusion of light.
The fluorescence measurements are carried out with a BMG Labtech FLUOstar™, BMG Labtech NOVOstar™ or BMG Labtech POLARstar™ instrument (525 nm excitation, 560 nm emission, bottom-read mode). After incubation of the dye, 50 μl of the substances to be tested in the desired concentrations, or 50 μl of ES buffer for control purposes, are introduced into separate cavities of the measuring plate and incubated for 30 min at room temperature whilst being shielded from light. The fluorescence intensity of the dye is then measured for 5 min and the fluorescence value F1 of each well is thus determined at a given, constant time. 15 μl of a […] KCl solution ([…]) are then added to each well. The change in fluorescence is subsequently measured until all relevant measured values have been obtained (mainly 5-30 min). At a given time after KCl application, a fluorescence value F2 is determined, in this case at the time of the fluorescence peak.
For calculation, the fluorescence intensity F2 is compared with the fluorescence intensity F1, and the agonistic activity of the target compound on the potassium channel is determined therefrom. F2 and F1 are calculated as follows: […]
is determined by adding to the reaction batch only the buffer solution instead of the substance to be tested, determining the value F1K of the fluorescence intensity, adding the potassium ions as described above and measuring a value F2K of the fluorescence intensity. Then F2K and F1K are calculated as follows: […]
Calculations of EC50 values are carried out with the aid of Prism v4.0 software (GraphPad Software™).

Structure (SMILES) | EC50 [nM] | Emax at 1 µM [%]
COC(=O)CCSc1nc2ccccc2cc1C(=O)NCc1cccs1 [compound 2, 3-{[3-[Oxo-(2-thienylmethylamino)methyl]-2-quinolyl]thio}propanoic acid methyl ester] |  | 26
O=C(NCc1cccs1)c1cc2ccccc2nc1SCCCC1CCCCC1 [compound 3] | 1930 | 77
O=C(NCc1cccs1)c1cc2ccccc2nc1SCCS(=O)(=O)c1ccccc1 [compound 5, 2-[2-(Phenylsulfonyl)ethylthio]-N-(2-thienyl-methyl)-3-quinoline carboxamide] | 2660 | 98
O=C(NCc1cccs1)c1cc2ccccc2nc1SCCCc1ccc(F)cc1 [compound 6] | 1220 | 111
CCSc1nc2ccccc2cc1C(=O)NCc1cccs1 [compound 7, 2-(Ethylthio)-N-(2-thienylmethyl)-3-quinoline carboxamide] | 1350 | 
O=C(NCc1cccs1)c1cc2cc(C(F)(F)F)ccc2nc1SCCS(=O)(=O)c1ccccc1 [compound 8, 2-[2-(Phenylsulfonyl)ethylthio]-N-(2-thienyl-methyl)-6-(trifluoromethyl)-3-quinoline carboxamide] |  | 46
O=C(NCc1cccs1)c1cc2ccc(C(F)(F)F)cc2nc1SCCS(=O)(=O)c1ccccc1 [compound 9] |  | 26
O=C(NCc1cccs1)c1cc2c(C(F)(F)F)cccc2nc1SCCS(=O)(=O)c1ccccc1 [compound 10] |  | 9
CCCCCSc1nc2ccc(C(F)(F)F)cc2cc1C(=O)NCc1cccs1 [compound 11, 2-(Pentylthio)-N-(2-thienylmethyl)-6-(trifluoromethyl)-3-quinoline carboxamide] |  | 41
O=C(NCc1cccs1)c1cc2ccccc2nc1SCCS(=O)(=O)c1cccc(C(F)(F)F)c1 [compound 13, N-(2-Thienylmethyl)-2-[2-[3-(trifluoromethyl)-phenyl]sulfonylethylthio]-3-quinoline carboxamide] | 991 | 136
CCCCCSc1nc2cc(C(F)(F)F)ccc2cc1C(=O)NCc1cccs1 [compound 15] | 778 | 145
Cc1ccc(S(=O)(=O)CCSc2nc3ccccc3cc2C(=O)NCc2cccs2)cc1 [compound 17] |  | 77
Cc1ccc(SCCSc2nc3ccccc3cc2C(=O)NCc2cccs2)cc1 [compound 18] |  | 72
Cc1ccc(CCCSc2nc3ccccc3cc2C(=O)NCc2cccs2)cc1 [compound 20] |  | 64
O=C(NCCC1CCCCC1)c1cc2ccccc2nc1SCCS(=O)(=O)c1ccccc1 [compound 22] |  | 15
CC(C)(C)CCNC(=O)c1cc2ccccc2nc1SCCS(=O)(=O)c1ccccc1 [compound 23] |  | 14
O=C(NCc1cccs1)c1cc2ccccc2nc1SCCSc1ccc(F)cc1 [compound 24] |  | 27
CCSc1nc2cc(C(F)(F)F)ccc2c(C)c1C(=O)NCCC(C)(C)C [compound 25] |  | 8
CCSc1nc2cc(C(F)(F)F)ccc2c(C)c1C(=O)NCC(C)(C)C [compound 28] |  | 47
CCSc1nc2cc(C(F)(F)F)ccc2c(C)c1C(=O)NCc1ccncc1 [compound 35] | 2650 | 142
CCSc1nc2cc(C(F)(F)F)ccc2c(C)c1C(=O)NCc1ccccn1 [compound 41] | 1100 | 121
CCSc1nc2cc(C(F)(F)F)ccc2c(C)c1C(=O)NCc1nnco1 [compound 45] |  | 23

Next, values leading:

EC50 [nM] | Emax at 1 µM [%] | Structure (SMILES)
744 | 143 | CCCCCSc1nc2ccccc2cc1C(=O)NCc1cccs1 [compound 1, 2-(Pentylthio)-N-(2-thienylmethyl)-3-quinoline carboxamide]
144 | 168 | O=C(NCc1cccs1)c1cc2ccccc2nc1SCCCc1ccccc1 [compound 4]
412 | 155 | CCSc1nc2ccc(C(F)(F)F)cc2cc1C(=O)NCc1cccs1 [compound 12]
78 | 164 | O=C(NCc1cccs1)c1cc2ccccc2nc1SCCS(=O)(=O)c1ccc(F)cc1 [compound 16]
167 | 71 | O=C(NCC1CCCCC1)c1cc2ccccc2nc1SCCS(=O)(=O)c1ccccc1 [compound 19]
119 | 30 | O=C(NCc1cccs1)c1cc2ccccc2nc1SCCSc1ccccc1 [compound 21]
367 | 86 | CCSc1nc2cc(C(F)(F)F)ccc2c(C)c1C(=O)NCC1CCCCCC1 [compound 29]
145 | 159 | CCSc1nc2cc(C(F)(F)F)ccc2c(C)c1C(=O)NCc1ccc(F)c(F)c1 [compound 31]
59 | 70 | CCSc1nc2cc(C(F)(F)F)ccc2c(C)c1C(=O)NCc1ccc(F)cc1F [compound 32]
140 | 162 | CCSc1nc2cc(C(F)(F)F)ccc2c(C)c1C(=O)NCc1cc(F)c(F)c(F)c1 [compound 33]
98 | 72 | CCSc1nc2cc(C(F)(F)F)ccc2c(C)c1C(=O)NCc1cc(F)c(F)cc1F [compound 34]
136 | 93 | CCSc1nc2cc(C(F)(F)F)ccc2c(C)c1C(=O)NCc1ccc(C(C)(C)C)cc1 [compound 36]
76 | 142 | CCSc1nc2cc(C(F)(F)F)ccc2c(C)c1C(=O)NCc1cccc(C(F)(F)F)c1 [compound 38]
473 | 48 | CCSc1nc2cc(C(F)(F)F)ccc2c(C)c1C(=O)NCCc1ccccc1 [compound 39]
194 | 152 | CCSc1nc2cc(C(F)(F)F)ccc2c(C)c1C(=O)NCCCc1ccccc1 [compound 40]
159 | 77 | CCSc1nc2cc(C(F)(F)F)ccc2c(C)c1C(=O)NCc1ccc2ccccc2c1 [compound 43]
587 | 169 | CCSc1nc2cc(C(F)(F)F)ccc2c(C)c1C(=O)NCc1nccs1 [compound 44]
141 | 155 | CCCSc1nc2cc(C(F)(F)F)ccc2c(C)c1C(=O)NCc1cccc(F)c1 [compound 46]
73 | 152 | Cc1c(C(=O)NCc2cccc(F)c2)c(SC(C)C)nc2cc(C(F)(F)F)ccc12 [compound 47]
56 | 133 | Cc1c(C(=O)NCc2cccc(F)c2)c(SC2CCCC2)nc2cc(C(F)(F)F)ccc12 [compound 48]
74 | 151 | CCCCSc1nc2cc(C(F)(F)F)ccc2c(C)c1C(=O)NCc1cccc(F)c1 [compound 49]
61 | 150 | CCCCCSc1nc2cc(C(F)(F)F)ccc2c(C)c1C(=O)NCc1cccc(F)c1 [compound 50]
37 | 158 | CCC(C)Sc1nc2cc(C(F)(F)F)ccc2c(C)c1C(=O)NCc1cccc(F)c1 (stereo not drawn) [compound 51]
64 | 102 | Cc1c(C(=O)NCc2cccc(F)c2)c(SC2CCCCC2)nc2cc(C(F)(F)F)ccc12 [compound 52]
256 | 73 | CCSc1nc2cc(C(F)(F)F)ccc2c(C)c1C(=O)NCCC1CCCC1 [compound 53]
162 | 229 | CCSc1nc2cc(C(F)(F)F)ccc2c(C)c1C(=O)NCCCC1CCCC1 [compound 54]
